One assay relates to Corn. Kind of assay: Greenhouse test Procedure VI: biocide and antidote in furrow, herbicide PPI in cover layer (Examples 43-47, 59-61; Tables 42-46, 58-60). Format: in vivo. The following applies: for safening: COUNTER 15G/PURSUIT interaction, Example 47; for safener efficacy, comparison: COUNTER 15G + PURSUIT/co-herbicides, Example 61. The text has this: (§1) This procedure describes interaction among herbicide, biocide and antidote when the herbicide is incorporated in a soil cover layer and the biocide and the antidote are applied in a soil furrow containing crop seed before emergence of the crop. The soil and seeding depth were described in Procedure IV. A first container was designated as an untreated control, a second container was designated as a herbicide control, a third container was designated as a herbicide + biocide control and a fourth container as a herbicide + biocide + antidote test container. The biocide and antidote were formulated as granules. The biocide was applied to the soil furrows of the third and fourth containers at an application rate of 1.1 mg of active compound per cm of row. The antidote was applied to the soil furrow of the fourth container at an application rate of 0.37 mg of active compound per cm of row. A measured amount of the herbicide dispersed or dissolved in acetone was applied to a measured quantity of soil. The quantity of soil treated with the herbicide was thoroughly mixed to incorporate the herbicide. Samples of this soil were used to cover the seed beds of the second, third and fourth containers. For each test series, the seed bed of the first container was likewise covered by a soil layer not treated with herbicide and without biocide or antidote in the soil furrow.
(§2) The containers were then placed on a bench in a greenhouse. Watering was by subirrigation plus overhead irrigation after the plants emerged. All treatments were run in duplicate. Plant response was observed according to Procedure IV. Variations in this procedure will be noted in the examples.
In continuing tests to evaluate the variations of this invention, a series of tests were conducted to determine the efficacy of the above safeners in Examples 39-42 to alleviate corn injury induced by the interaction of various additional commercial sulfonylurea herbicides with COUNTER 15G insecticide. In this example, the tests were conducted according to Procedure VI above. In modifications of that procedure, herbicides were applied to soil samples as acetone/water suspensions, incorporated by shaking in a closed container, with subsamples used to cover furrow-treated 10.2 cm pots. Pots were subirrigated followed by overhead misting on days 6-10.
This example was designed to test the safening effect of those above safeners used in this test series to relieve corn injury by negative synergism induced by interaction of COUNTER 15G and three imidazolinone herbicides, i.e., imazaquin and imazapyr (used in the POE tests in Example 41) and AC 263222 (a.i. in CADRE® herbicide). As differing from the tests in Example 41, this test was a PPI test according to Procedure VI described above. Observation of test results (Table 43) were taken thirteen 913) days after in-furrow PPI preparation.
This example describes PPI tests to evaluate said test safeners in this series with analogs of the sulfonamide herbicides tested under POE herbicide application procedures described in Example 42. In these tests, conducted according to Procedure VI described above, Herbicide Nos. 20, 22 and 24 were applied PPI with the insecticide and antidote. Observations of tests results were made thirteen days after PPI initiation.
An additional three (3) sulfonamide herbicide analogs were tested simultaneously and under the same conditions described in Example 45.
Another test of this invention involved the safening effects of the safeners in this series against negative synergy inducted by the interaction of COUNTER 15G and a sulfonylurea herbicide (OUST®), Herbicide No. 13, and PURSUIT, an imidazolinone herbicide, No. 6. Test conditions were the same as those in Examples 43-46. Other procedures for applying herbicidal formulations are as described in Example 42. […]

A further assay deals with Shattercane (SHCA). Format: in vivo.
A further assay deals with Velvetleaf (VELE). Put plainly: Greenhouse test Procedure VI (Examples 59-61; Tables 58-60). Format: in vivo, Abutilon theophrasti.
From the text: as §1, §2
The procedure used in this example involved the PPI application of biocide and safener as described in general Procedure VI above. The "primary" herbicide in this test was MON-12000 (Herbi-cide No. 1) in admixture with other herbicides designated as "co-herbicides", which included LASSO® (co-herbicide B); DUAL® (C); acetochlor (A); EPTAM® (D); butylate (E) and PURSUIT® (K).
The in-furrow treatments with blended COUNTER 15G and antidote mixtures was as described in above examples. MON-12000 and the co-herbicides were formulated in acetone and applied as tank mixtures, incorporated into Dupo silt loam soil with a rotary drum mixer. Subsamples were used to cover seeded and in-furrow treated 10.2 cm pots. Pots were placed on greenhouse benches and subirrigated. Plant responses were observed thirteen days after PPI initiation. Test results (average of two replications) are shown in Table 58, wherein giant foxtail (GIFT) was used in place of shattercane.
This test was conducted in the same manner used in Example 59. All biocide and antidote components were the same and in these tests XRD-498 (Herbicide No. 21) was the prime herbicide. Co-herbicides are shown in Table 59 together with test data.
In one other test conducted as described in the preceding examples in this series of tests, the herbicide PURSUIT® was used as the primary herbicide (in the context of this invention) together with the same insecticide and safeners as above and the co-herbicides shown in Table 60, together with test results.

[1] abbreviates: Antidote + Biocide No. 1 in furrow, Herbicide No. 6 0.14 Kg/Ha PPI.
The mark [2] stands for this setting: Antidote + Biocide No. 1 in furrow, Herbicide No. 11 0.0044 Kg/Ha PPI.
Where [3] appears, read: Antidote + Biocide No. 1 in furrow, Herbicide No. 12 0.0044 Kg/Ha PPI.
[4] abbreviates: Antidote + Biocide No. 1 in furrow, Herbicide No. 13 0.0011 Kg/Ha PPI.
Where [5] appears, read: Antidote + Biocide No. 1 in furrow, Herbicide No. 13 0.0022 Kg/Ha PPI.
Setting [6] is: Antidote + Biocide No. 1 in furrow, Herbicide No. 14 0.07 Kg/Ha PPI.
[7] abbreviates: Antidote + Biocide No. 1 in furrow, Herbicide No. 16 0.07 Kg/Ha PPI, 13 days.
The mark [8] stands for this setting: Antidote + Biocide No. 1 in furrow, Herbicide No. 17 0.14 Kg/Ha PPI, 13 days.
[9] abbreviates: Antidote + Biocide No. 1 in furrow, Herbicide No. 18 0.04 Kg/Ha PPI, 13 days.
[10] abbreviates: Antidote + Biocide No. 1 in furrow, Herbicide No. 20 1.12 Kg/Ha PPI, 13 days.
Setting [11] is: Antidote + Biocide No. 1 in furrow, Herbicide No. 22 0.28 Kg/Ha PPI, 13 days.
[12] abbreviates: Antidote + Biocide No. 1 in furrow, Herbicide No. 24 0.14 Kg/Ha PPI, 13 days.
Setting [13] is: Antidote + Biocide No. 1 in furrow, Herbicide No. 25 0.14 Kg/Ha PPI, 13 days.
Where [14] appears, read: Antidote + Biocide No. 1 in furrow, Herbicide No. 26 2.24 Kg/Ha PPI, 13 days.
Where [15] appears, read: Antidote + Biocide No. 1 in furrow, Herbicide No. 28 0.04 Kg/Ha PPI, 13 days.
Setting [16] is: Herbicide No. 12 0.0044 Kg/Ha PPI + Biocide No. 1 in furrow, no antidote.
The mark [17] stands for this setting: Herbicide No. 12 0.0044 Kg/Ha PPI alone, average of two reps.
Setting [18] is: Antidote 4.48 + Biocide No. 1 8.96 Kg/Ha PPI, Herb. No. 8 0.07, 5 DAP, before herbicide application.
[19] abbreviates: Antidote 4.48 + Biocide No. 1 8.96 Kg/Ha PPI, Herb. No. 8 0.07 POE, 13 DAP.
Setting [20] is: Antidote 4.48 + Biocide No. 1 8.96 Kg/Ha PPI, Herbicide No. 7 0.28 POE, 13 days after planting.
Setting [21] is: Table 14: Herbicide No. 7 (ACCENT) 0.84 Kg/Ha POE + Biocide No. 2 8.96 Kg/Ha PPI + antidote 4.48 Kg/Ha PPI, 13 days after planting, 8 days after herbicide.
The mark [22] stands for this setting: […], 13 days after planting, 8 days after herbicide.
Setting [23] is: […], observed 10 days after herbicide application.

Read-outs that look alike come from different tables or passages of the source.

Turning to `O=C(OCc1ccccc1)c1sc(Cl)nc1C(F)(F)F` [Antidote No. 7, 5-Thiazolecarboxylic acid, 2-chloro-4-(trifluoromethyl)-, (phenylmethyl) ester], the “safening” value with Corn is on record as “less effective than the other safeners”.
Take `COC(=O)COC(c1ccccc1)c1ccccc1` [Antidote No. 12, Acetic acid, (diphenylmethoxy)-, methyl ester]: in the assay on Corn, the “safener efficacy, comparison” value was “more effective than flurazole or MON-4660” and the “safening” value is on record as “good activity”. In addition, in the assay with Corn (COUNTER 15G + XRD-498/co-herbicide mixture, Example 60), the “safener efficacy” value is on record as “most effective safener”.
Take `COC(=O)COC(c1ccccc1)c1ccccc1` [compound 12]: the “% Inhibition Corn” value in the assay on Corn (setting [1]) worked out at 10%; with Corn (setting [2]), 10%; with Corn (setting [3]) it was 10%; with Corn (setting [4]), 35%; in the assay on Corn (setting [5]), 55%; in the assay with Corn (setting [6]) it was 0%. Besides, the “% Inhibition Corn” value came to 40% in the assay with Corn (setting [7]); 10% in the assay with Corn (setting [8]); 5% with Corn (setting [9]); 25% in the assay on Corn (setting [10]); 0% in the assay on Corn (setting [11]); 30% in the assay on Corn (setting [12]). The “% Inhibition Corn” value is 0% in the assay on Corn (setting [13]); 5% in the assay with Corn (setting [14]); 10% in the assay with Corn (setting [15]); 70% with Corn (setting [16]); 40% with Corn (setting [17]). The entries for the “% Inhibition 5 DAP SHCA” value in the assay with Shattercane (SHCA) (setting [18]) and with Shattercane (SHCA) (in vivo) were 0% and 15%, respectively. For the same compound, the “% Inhibition 13 DAP SHCA” value with Shattercane (SHCA) (setting [19]) turned out to be 80%; in the assay on Shattercane (SHCA) (Herb. […], 13 DAP, after herbicide application) it was 85%; with Shattercane (SHCA) (in vivo), 75%. For the same compound, the “% Inhibition SHCA” value with Shattercane (SHCA) (setting [20]) was 75%; in the assay with Shattercane (SHCA) (setting [21]), 75%; with Shattercane (SHCA) (setting [22]), 90%; in the assay with Shattercane (SHCA) ([…], observed 8 days later (Table 32)), 80%; in the assay with Shattercane (SHCA) ([…], observed 8 days later (Table 33)) it was 40%; in the assay with Shattercane (SHCA) (setting [23]) it was 60%. The “% Inhibition VELE” value with Velvetleaf (VELE) (setting [1]) was 65%; in the assay with Velvetleaf (VELE) (setting [2]) it was 70%; in the assay on Velvetleaf (VELE) (setting [3]) it was 60%; in the assay on Velvetleaf (VELE) (setting [4]), 15%; with Velvetleaf (VELE) (setting [5]), 60%; in the assay with Velvetleaf (VELE) (setting [6]), 85%. Also, the “% Inhibition VELE” value in the assay with Velvetleaf (VELE) (setting [7]) stood at 60%; in the assay with Velvetleaf (VELE) (setting [8]), 80%; in the assay on Velvetleaf (VELE) (setting [9]) it was 70%; in the assay on Velvetleaf (VELE) (setting [10]), 95%; in the assay with Velvetleaf (VELE) (setting [11]) it was 75%; with Velvetleaf (VELE) (setting [12]), 90%. Also, the “% Inhibition VELE” value with Velvetleaf (VELE) (setting [13]) is listed as 70%; with Velvetleaf (VELE) (setting [14]), 55%; with Velvetleaf (VELE) (setting [15]), 80%; in the assay with Velvetleaf (VELE) (setting [16]) it was 50%; in the assay with Velvetleaf (VELE) (setting [17]) it was 50%.
For the compound `N#CCOc1ccc(Cl)c2cccnc12` [compound 33], the “% Inhibition Corn” value with Corn (setting [1]) is listed as 20%; in the assay with Corn (setting [2]), 20%; with Corn (setting [3]), 20%; with Corn (setting [4]), 40%; in the assay with Corn (setting [5]), 90%; in the assay on Corn (setting [6]), 10%. For the same compound, the “% Inhibition Corn” value is 35% with Corn (setting [7]); 20% with Corn (setting [8]); 5% in the assay with Corn (setting [9]); 50% with Corn (setting [10]); 5% with Corn (setting [11]); 40% in the assay with Corn (setting [12]). Further, the “% Inhibition Corn” value in the assay with Corn (setting [13]) is on record as 20%; in the assay with Corn (setting [14]), 10%; in the assay on Corn (setting [15]), 30%. The “% Inhibition 5 DAP SHCA” value is recorded as 20% in the assay on Shattercane (SHCA) (setting [18]) and 70% with Shattercane (SHCA) (in vivo). In addition, the “% Inhibition 13 DAP SHCA” value in the assay on Shattercane (SHCA) (setting [19]) and with Shattercane (SHCA) (in vivo) was 90% each time. Also, the “% Inhibition SHCA” value was found to be 70% with Shattercane (SHCA) (setting [20]), 75% in the assay with Shattercane (SHCA) (setting [21]), 90% with Shattercane (SHCA) (setting [22]) and 55% in the assay on Shattercane (SHCA) (setting [23]). The “% Inhibition VELE” value amounted to 70% with Velvetleaf (VELE) (setting [1]); 65% in the assay on Velvetleaf (VELE) (setting [2]); 60% in the assay with Velvetleaf (VELE) (setting [3]); 20% in the assay on Velvetleaf (VELE) (setting [4]); 50% in the assay with Velvetleaf (VELE) (setting [5]); 85% with Velvetleaf (VELE) (setting [6]). Also, the “% Inhibition VELE” value in the assay on Velvetleaf (VELE) (setting [7]) amounted to 65%; in the assay with Velvetleaf (VELE) (setting [8]), 75%; with Velvetleaf (VELE) (setting [9]) it was 40%; with Velvetleaf (VELE) (setting [10]), 90%; in the assay with Velvetleaf (VELE) (setting [11]), 90%; in the assay with Velvetleaf (VELE) (setting [12]), 95%. Further, the “% Inhibition VELE” value is listed as 70% with Velvetleaf (VELE) (setting [13]), 50% in the assay with Velvetleaf (VELE) (setting [14]) and 80% in the assay on Velvetleaf (VELE) (setting [15]).
For `CC1(C)OC(c2ccco2)CN1C(=O)C(Cl)Cl` (centres unmarked) [Antidote No. 1, Oxazolidine, 3-(dichloroacetyl)-2,2-dimethyl-5-(2-furanyl)-], in the assay with Corn, the “safener efficacy, comparison” value was “more effective than flurazole or MON-4660” and the “safening” value is “good activity”.

For the origin of these results see patent EP0565593B1, “REDUCING PESTICIDAL INTERACTIONS IN CROPS” (priority 1990, dated 1992).
